In data set [1] the target is T1, ATP-binding cassette sub-family C member 2 (Homo sapiens, UniProt Q92887). Nature of the data set: TP_TRANSPORTER: increase cell accumulation of erythromycin in hMRP2-expressing MDCK2 cells. The class given is functional, cell-based. The settings on record: dog, mdck-ii.
In data set [2] the target is T1, ATP-binding cassette sub-family C member 2. The experiment in a line: TP_TRANSPORTER: increase cell accumulation of cyclosporine-A in hMRP2-expressing MDCK2 cells. The class given is functional, cell-based. The settings on record: dog, mdck-ii.

The text below walks through data of ChEMBL document CHEMBL2074519, “Molecular evidence and functional expression of a novel drug efflux pump (ABCC2) in human corneal epithelium and rabbit cornea and its role in ocular drug efflux” (Int J Pharm, 2006).

T1 sequence (Q92887 whole entry): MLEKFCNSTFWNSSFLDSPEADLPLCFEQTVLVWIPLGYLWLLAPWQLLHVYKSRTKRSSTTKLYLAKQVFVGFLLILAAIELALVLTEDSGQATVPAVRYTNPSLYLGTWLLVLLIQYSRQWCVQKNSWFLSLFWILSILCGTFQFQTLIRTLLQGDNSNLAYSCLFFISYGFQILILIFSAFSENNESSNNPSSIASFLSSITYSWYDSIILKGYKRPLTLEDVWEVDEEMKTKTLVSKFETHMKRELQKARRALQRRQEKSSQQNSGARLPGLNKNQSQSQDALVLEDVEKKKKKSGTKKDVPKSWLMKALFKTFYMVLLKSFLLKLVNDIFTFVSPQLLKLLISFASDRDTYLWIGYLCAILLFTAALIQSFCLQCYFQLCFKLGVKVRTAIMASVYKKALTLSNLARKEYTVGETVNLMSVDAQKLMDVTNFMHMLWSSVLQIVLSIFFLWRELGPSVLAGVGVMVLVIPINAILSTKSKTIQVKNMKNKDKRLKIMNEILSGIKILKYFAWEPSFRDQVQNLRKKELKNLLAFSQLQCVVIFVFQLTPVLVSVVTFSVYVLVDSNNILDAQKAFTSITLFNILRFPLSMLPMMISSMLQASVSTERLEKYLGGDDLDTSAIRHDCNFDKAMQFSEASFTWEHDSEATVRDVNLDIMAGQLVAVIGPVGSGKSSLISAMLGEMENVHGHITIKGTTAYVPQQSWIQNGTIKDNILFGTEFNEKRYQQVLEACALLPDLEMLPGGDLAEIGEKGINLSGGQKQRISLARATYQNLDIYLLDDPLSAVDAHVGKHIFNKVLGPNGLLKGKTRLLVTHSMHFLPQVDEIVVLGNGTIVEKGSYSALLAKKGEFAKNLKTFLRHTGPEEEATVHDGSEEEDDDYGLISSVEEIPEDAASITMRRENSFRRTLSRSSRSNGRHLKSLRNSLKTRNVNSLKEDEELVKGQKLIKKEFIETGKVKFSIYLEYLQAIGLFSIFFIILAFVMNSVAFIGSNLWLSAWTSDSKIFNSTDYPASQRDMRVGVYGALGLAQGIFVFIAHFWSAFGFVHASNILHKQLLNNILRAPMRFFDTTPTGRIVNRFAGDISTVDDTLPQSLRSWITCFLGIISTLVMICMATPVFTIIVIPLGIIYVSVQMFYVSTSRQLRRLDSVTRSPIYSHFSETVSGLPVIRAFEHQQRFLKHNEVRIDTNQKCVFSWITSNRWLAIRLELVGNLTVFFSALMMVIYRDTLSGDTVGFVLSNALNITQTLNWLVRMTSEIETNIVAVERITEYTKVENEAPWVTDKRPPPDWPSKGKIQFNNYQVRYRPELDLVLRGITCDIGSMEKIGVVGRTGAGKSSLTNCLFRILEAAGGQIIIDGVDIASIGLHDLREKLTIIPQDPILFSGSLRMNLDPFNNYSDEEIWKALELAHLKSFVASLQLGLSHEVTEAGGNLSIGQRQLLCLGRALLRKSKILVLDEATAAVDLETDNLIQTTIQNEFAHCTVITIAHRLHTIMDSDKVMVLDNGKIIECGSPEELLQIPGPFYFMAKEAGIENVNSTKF

`CN(C)C(=O)CCSC(SCCC(=O)O)c1cccc(/C=C/c2ccc3ccc(Cl)cc3n2)c1` (configuration not stated) [MK-571]: the results for the Activity in data set [1] and in data set [2] were 195% and 156%, respectively.
